Data published in the NIST ThermoML archive (doi:10.1021/je900387e).

Test: xn = mol fraction of the nth substance listed
Details: Liquid, Pycnometric method

Cn1ccnc1 [1-methylimidazole] + O=C=O
Details	mass density [kg/m3]
322.7 K, 12990 kPa, x1 = 0.0487	807
322.7 K, 13020 kPa, x1 = 0.0247	755
322.7 K, 13030 kPa, x1 = 0.0102	707
322.7 K, 13120 kPa, x1 = 0.0487	809
322.7 K, 13250 kPa, x1 = 0.0487	812
322.7 K, 13310 kPa, x1 = 0.0247	762
322.7 K, 13480 kPa, x1 = 0.0102	723
322.7 K, 13500 kPa, x1 = 0.0487	817
322.7 K, 13620 kPa, x1 = 0.0247	770
322.7 K, 13790 kPa, x1 = 0.0487	822
322.7 K, 13950 kPa, x1 = 0.0247	777
322.7 K, 14040 kPa, x1 = 0.0102	740
322.7 K, 14080 kPa, x1 = 0.0487	827
322.7 K, 14340 kPa, x1 = 0.0247	786
322.7 K, 14370 kPa, x1 = 0.0487	832
322.7 K, 14510 kPa, x1 = 0.0102	753
322.7 K, 14640 kPa, x1 = 0.1024	909
322.7 K, 14710 kPa, x1 = 0.0487	838
322.7 K, 14750 kPa, x1 = 0.0247	794
322.7 K, 14780 kPa, x1 = 0.1024	911
322.7 K, 14920 kPa, x1 = 0.1024	912
322.7 K, 15030 kPa, x1 = 0.1024	913
322.7 K, 15070 kPa, x1 = 0.0487	843
322.7 K, 15180 kPa, x1 = 0.1024	915
322.7 K, 15200 kPa, x1 = 0.0247	802
322.7 K, 15260 kPa, x1 = 0.0102	771
322.7 K, 15290 kPa, x1 = 0.1024	916
322.7 K, 15430 kPa, x1 = 0.0487	849
322.7 K, 15470 kPa, x1 = 0.1024	917
322.7 K, 15590 kPa, x1 = 0.1024	918
322.7 K, 15690 kPa, x1 = 0.0247	810
322.7 K, 15860 kPa, x1 = 0.0487	855
322.7 K, 15900 kPa, x1 = 0.1024	922
322.7 K, 16070 kPa, x1 = 0.0247	816
322.7 K, 16210 kPa, x1 = 0.0102	790
322.7 K, 16230 kPa, x1 = 0.1024	924
322.7 K, 16280 kPa, x1 = 0.0487	860
322.7 K, 16530 kPa, x1 = 0.1024	927
322.7 K, 16540 kPa, x1 = 0.0247	824
322.7 K, 16700 kPa, x1 = 0.0487	866
322.7 K, 16830 kPa, x1 = 0.0247	828
322.7 K, 16880 kPa, x1 = 0.1024	929
322.7 K, 17020 kPa, x1 = 0.0102	805
322.7 K, 17160 kPa, x1 = 0.0247	833
322.7 K, 17180 kPa, x1 = 0.1024	933
322.7 K, 17340 kPa, x1 = 0.1024	934
322.7 K, 17490 kPa, x1 = 0.0247	837
322.7 K, 17570 kPa, x1 = 0.1024	936
322.7 K, 17750 kPa, x1 = 0.1024	937
322.7 K, 17830 kPa, x1 = 0.0247	842
322.7 K, 17920 kPa, x1 = 0.1024	939
322.7 K, 17960 kPa, x1 = 0.0102	821
322.7 K, 18120 kPa, x1 = 0.1024	940
322.7 K, 18150 kPa, x1 = 0.0102	824
322.7 K, 18330 kPa, x1 = 0.1024	942
322.7 K, 18570 kPa, x1 = 0.1024	943
322.7 K, 18770 kPa, x1 = 0.1024	945
322.7 K, 18990 kPa, x1 = 0.1024	946
327.6 K, 11610 kPa, x1 = 0.0102	548
327.6 K, 11720 kPa, x1 = 0.0102	558
327.6 K, 11840 kPa, x1 = 0.0102	568
327.6 K, 11970 kPa, x1 = 0.0102	578
327.6 K, 12110 kPa, x1 = 0.0102	589
327.6 K, 12270 kPa, x1 = 0.0102	600
327.6 K, 12440 kPa, x1 = 0.0102	612
327.6 K, 12510 kPa, x1 = 0.0247	682
327.6 K, 12630 kPa, x1 = 0.0102	624
327.6 K, 12630 kPa, x1 = 0.0247	687
327.6 K, 12720 kPa, x1 = 0.0247	691
327.6 K, 12850 kPa, x1 = 0.0102	636
327.6 K, 12890 kPa, x1 = 0.0247	698
